In US7205304B2, “Sulfonyl-Derivatives as novel inhibitors of histone deacetylase” (Janssen Pharmaceutica N.V., priority 2002, dated 2007):
Converted amounts (≈) assume the structure as drawn.

Columns and labels:
[1] = Kinetic solubility in aqueous media (nephelometry); format: physicochemical; details: phosphate citrate buffer, pH 7.4, aqueous buffer, kinetic from dmso stock, phosphate citrate buffer pH 7.4, turbidity of three dilution steps; read-out: Solubility Score
Procedure, shortened: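 DMSO stock (5 mM) diluted in three consecutive steps into phosphate citrate buffer pH 7.4, in triplicate; turbidity of each dilution read by nephelometry immediately after the last step. Compounds ranked into 3 classes: score 3 if first dilution clear, 2 if first unclear but second clear.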

[2] = biological target: histone deacetylase (HeLa nuclear extracts); assay: In vitro assay for inhibition of histone deacetylase; format: biochemical; details: [3H]acetylated histone H4 peptide substrate
[3] = test system: A2780 ovarian carcinoma cells; assay: Antiproliferative activity on A2780 cells (MTT); format: cell-based, human; details: Homo sapiens, A2780, 96 h, four days of incubation, read-out: Cellular activity pIC50 (converted)
Procedure, shortened: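 A2780 ovarian carcinoma cells were seeded at 1500 cells/well and exposed to compound for four days, with DMSO ≤0.1%. Viability was measured by MTT (2 h, 37° C) and expressed as a percentage of untreated controls after blank subtraction. Initial single-point testing was at 10^−6 M, then full curves gave pIC50.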

| melting point [°C] | solubility [1] [µM] | Enzyme activity pIC50 [2] | IC50 [3] [nM] | Compound |
| --- | --- | --- | --- | --- |
| 146.9 | – | – | – | O=C(NO)c1cnc(N2CCN(S(=O)(=O)c3ccc(-c4ccccc4OCCN4CCCC4)cc3)CC2)nc1 (hydrate or solvate) [Co. No. 125] |
| 192 | – | – | – | CN(C)Cc1sccc1-c1ccc(S(=O)(=O)N2CCN(c3ncc(C(=O)NO)cn3)CC2)cc1 [Co. No. 124] |
| 243 | – | – | – | O=C(NO)c1cnc(N2CCN(S(=O)(=O)c3ccc(-c4cccc(CCN5CCCC5)c4)cc3)CC2)nc1 [Co. No. 127] |
| 200 | < 75.8 | <5 | > 10000 | CC(=O)Nc1ccc(N2CCN(S(=O)(=O)c3ccc4ccccc4c3)CC2)cc1 [Compound 3] |
| 210 | 75.8 to 454 (≈ 32.3 to 194 µg/mL) | <5 | > 10000 | O=C(NO)Nc1ccc(N2CCN(S(=O)(=O)c3ccc4ccccc4c3)CC2)cc1 [Compound 4] |
| 252 | – | <5 | > 10000 | Cn1cnc(C(=O)Nc2ccc(N3CCN(S(=O)(=O)c4ccc5ccccc5c4)CC3)cc2)c1 [Compound 5] |
| 226 | – | <5 | 3880 | O=C(Nc1ccc(N2CCN(S(=O)(=O)c3ccc4ccccc4c3)CC2)cc1)/C(Cc1ccccc1)=N/O [Compound 9] |
| 179 | < 75.8 | 6.7 | > 10000 | CC(=O)SCC(=O)c1ccc(N2CCN(S(=O)(=O)c3ccc4ccccc4c3)CC2)cc1 [Compound 10] |
| 196 | – | <5 | 1010 | O=C(NO)c1ccc(N2CCN(S(=O)(=O)c3ccc4ccccc4c3)CC2)cc1C(F)(F)F [Compound 11] |
| 197 | – | <5 | 8200 | CCOc1nc(N2CCN(S(=O)(=O)c3ccc4ccccc4c3)CC2)ncc1C(=O)NO [Compound 12] |
| 238 | < 75.8 | <5 | 442 | Nc1ccccc1NC(=O)c1cnc(N2CCN(S(=O)(=O)c3ccc4ccccc4c3)CC2)nc1 [Compound 13] |
| 200 | – | <5 | > 10000 | CN(C)C(=O)c1ccc(N2CCN(S(=O)(=O)c3ccc4ccccc4c3)CC2)nn1 [Compound 113] |
| 135 | – | <5 | 2020 | CN(C)c1nc(N2CCN(S(=O)(=O)c3ccc4ccccc4c3)CC2)ncc1C(=O)NO [Compound 115] |
| 249 | < 75.8 | 7.159 | 861 | O=C(NO)c1cnc(N2CCN(S(=O)(=O)c3ccc4ccccc4c3)CC2)cn1 [Compound 116] |
| 210 | > 454 | 6.741 | 5300 | NC(=O)C1CN(c2ncc(C(=O)NO)cn2)CCN1S(=O)(=O)c1ccc2ccccc2c1 (stereo not drawn) [Compound 118] |
| 225 | – | 5.215 | > 10000 | O=C(NO)c1cnc(N2CCN(S(=O)(=O)c3ccc4ccccc4c3)CC2)nc1NO [Compound 119] |
| 166 | – | 7.06 | > 10000 | O=C(NO)c1cnc(N2CCN(S(=O)(=O)c3ccc4ccccc4c3)C(C(=O)NO)C2)nc1 (stereo not drawn) [Compound 122] |
| – | > 454 | 8.152 | 137 | CN(CCO)Cc1sccc1-c1ccc(S(=O)(=O)N2CCN(c3ncc(C(=O)NO)cn3)CC2)cc1 [Compound 151] |
| – | > 454 | 8.156 | 164 | O=C(NO)c1cnc(N2CCN(S(=O)(=O)c3ccc(-c4ccsc4CN4CCN(CCO)CC4)cc3)CC2)nc1 [Compound 152] |
| – | < 75.8 | 8.869 | 64 | CN(C)CCCOc1ccccc1-c1ccc(S(=O)(=O)N2CCN(c3ncc(C(=O)NO)cn3)CC2)cc1 [Compound 154] |
| – | > 454 | 8.228 | 96.2 | CN1CCN(Cc2ccccc2-c2ccc(S(=O)(=O)N3CCN(c4ncc(C(=O)NO)cn4)CC3)cc2)CC1 [Compound 157] |
| – | 75.8 to 454 (≈ 40.8 to 245 µg/mL) | 7.784 | 446 | O=C(NO)c1cnc(N2CCN(S(=O)(=O)c3ccc(-c4ccccc4CN4CCOCC4)cc3)CC2)nc1 [Compound 158] |
| – | > 454 | 8.61 | 95.9 | CN(C)CCN(C)Cc1ccccc1-c1ccc(S(=O)(=O)N2CCN(c3ncc(C(=O)NO)cn3)CC2)cc1 [Compound 159] |

| melting point [°C] | solubility [1] [µM] | Enzyme activity pIC50 [2] | IC50 [3] [nM] | Compound |
| --- | --- | --- | --- | --- |
| – | 75.8 to 454 (≈ 42.2 to 253 µg/mL) | 8.272 | 278 | O=C(NO)c1cnc(N2CCN(S(=O)(=O)c3ccc(-c4ccccc4CN(CCO)CCO)cc3)CC2)nc1 [Compound 160] |
| – | 75.8 to 454 (≈ 42 to 252 µg/mL) | 8.308 | 48.3 | CN(C)CCN(C)Cc1ccc(-c2ccc(S(=O)(=O)N3CCN(c4ncc(C(=O)NO)cn4)CC3)cc2)cc1 [Compound 164] |
| – | < 75.8 | 7.947 | 55.6 | O=C(NO)c1cnc(N2CCN(S(=O)(=O)c3ccc(-c4ccc(CN5CCN(CCOCCO)CC5)cc4)cc3)CC2)nc1 [Compound 165] |
| – | < 75.8 | 7.969 | 61.4 | O=C(NO)c1cnc(N2CCN(S(=O)(=O)c3ccc(-c4ccc(CN5CCN(CCO)CC5)cc4)cc3)CC2)nc1 [Compound 166] |
| – | > 454 | 7.579 | 108 | O=C(NO)c1cnc(N2CCN(S(=O)(=O)c3ccc(-c4cccc(CN5CCOCC5)c4)cc3)CC2)nc1 [Compound 167] |
| – | > 454 | 8.766 | 63.8 | CN(C)Cc1cccc(-c2ccc(S(=O)(=O)N3CCN(c4ncc(C(=O)NO)cn4)CC3)cc2)c1 [Compound 168] |
| – | > 454 | 8.338 | 72.4 | CN1CCN(Cc2cccc(-c3ccc(S(=O)(=O)N4CCN(c5ncc(C(=O)NO)cn5)CC4)cc3)c2)CC1 [Compound 169] |
| – | > 454 | 8.227 | 65.3 | CC(C)N(C)Cc1cccc(-c2ccc(S(=O)(=O)N3CCN(c4ncc(C(=O)NO)cn4)CC3)cc2)c1 [Compound 170] |
| – | > 454 | 8.45 | 47.1 | O=C(NO)c1cnc(N2CCN(S(=O)(=O)c3ccc(-c4cccc(CN5CCCC5)c4)cc3)CC2)nc1 [Compound 171] |
| – | > 454 | 8.566 | 64.4 | CN(C)CCc1cccc(-c2ccc(S(=O)(=O)N3CCN(c4ncc(C(=O)NO)cn4)CC3)cc2)c1 [Compound 172] |
| – | > 454 | 8.423 | 70.5 | CC(C)N(C)CCc1cccc(-c2ccc(S(=O)(=O)N3CCN(c4ncc(C(=O)NO)cn4)CC3)cc2)c1 [Compound 173] |
| – | > 454 | 8.212 | 80.4 | CN1CCN(CCc2cccc(-c3ccc(S(=O)(=O)N4CCN(c5ncc(C(=O)NO)cn5)CC4)cc3)c2)CC1 [Compound 174] |
| – | < 75.8 | 7.691 | 68.9 | COc1ccc(-c2ccc(S(=O)(=O)N3CCN(c4ncc(C(=O)NO)cn4)CC3)cc2)cc1 [Compound 175] |
| – | 75.8 to 454 (≈ 38.5 to 231 µg/mL) | 6.513 | 828 | O=C(NO)c1cnc(N2CCN(S(=O)(=O)c3ccc(-c4cc(Cl)cc(Cl)c4)cc3)CC2)nc1 [Compound 176] |
| – | < 75.8 | 6.428 | 308 | O=C(NO)c1cnc(N2CCN(S(=O)(=O)c3ccc(-c4ccc(Cl)c(Cl)c4)cc3)CC2)nc1 [Compound 177] |
| – | < 75.8 | 7.99 | 75.5 | O=C(NO)c1cnc(N2CCN(S(=O)(=O)c3ccc(-c4ccc(F)cc4)cc3)CC2)nc1 [Compound 178] |
| – | 75.8 to 454 (≈ 34.4 to 206 µg/mL) | 7.146 | 119 | Cc1ccc(-c2ccc(S(=O)(=O)N3CCN(c4ncc(C(=O)NO)cn4)CC3)cc2)cc1 [Compound 179] |
| – | > 454 | 7.098 | 119 | CN(C)c1ccc2cc(S(=O)(=O)N3CCN(c4ncc(C(=O)NO)cn4)CC3)ccc2c1 [Compound 181] |
| – | < 75.8 | 7.634 | 87.1 | O=C(NO)c1cnc(N2CCN(S(=O)(=O)c3ccc(-c4ccccn4)s3)CC2)nc1 [Compound 182] |
| – | 75.8 to 454 (≈ 38.6 to 232 µg/mL) | 7.631 | 2320 | O=C(NO)c1cnc(N2CCN(S(=O)(=O)c3ccc(S(=O)(=O)c4ccccc4)s3)CC2)nc1 [Compound 183] |
| – | < 75.8 | 7.22 | 62.8 | O=C(NO)c1cnc(N2CCN(S(=O)(=O)c3ccc(-c4ccc(Cl)cc4)cc3)CC2)nc1 [Compound 184] |
| – | < 75.8 | 6.417 | 160 | O=C(NO)c1cnc(N2CCN(S(=O)(=O)c3ccc(-c4ccc(C(F)(F)F)cc4)cc3)CC2)nc1 [Compound 185] |
| – | 75.8 to 454 (≈ 39.3 to 236 µg/mL) | 6.539 | 558 | CN(c1ccccc1)c1ccc2cc(S(=O)(=O)N3CCN(c4ncc(C(=O)NO)cn4)CC3)ccc2c1 [Compound 186] |
